From US20020110808A1, “Toxicant-induced differential gene expression” (priority 2000, published 2002)
Read-outs that look alike come from different tables or passages of the source.

Experiments:
[1] = system: HepG2 cells; assay: BrdU incorporation cell proliferation assay; format: cell-based
Procedure: HepG2 cells (see e.g., Aden et al., Nature 282:615-616 (1979)) (ATCC HB-8065) were maintained in DMEM/F-12 medium with 10% fetal bovine serum and 1% antibiotic/antimycotic. For routine culturing and mRNA preps, cells were grown in 75 cm^2 flasks and split every 4-5 days. For plate assays, cells were plated in 96-well microtiter plates at 1×10^5 cells per well in 100 μl of growth medium.
Depending on the desired exposure time, cell treatments began 3 or 4 days after splitting or plating. At this time, the cells were near or at confluency. […] Cell treatments were at 37° C.
Uptake of 5-bromo-2′-deoxyuridine (BrdU) was measured using the Cell Proliferation ELISA kit from Boehringer-Mannheim (Indianapolis, Ind.).
Cell proliferation assays based on measurement of BrdU incorporation were performed according to the manufacturer's instructions (Boehringer Mannheim “Cell Proliferation ELISA Kit”).

[2] = system: HepG2 cells; assay: Dot blot array expression assay; settings: for Number of 27 unconfirmed or non-matching clones showing an expression change: two-fold threshold
Procedure: The quality of the PCR reactions was assessed by agarose gel electrophoresis. Human genomic DNA (Clontech) and PCR products were robotically dotted in 100 nl aliquots onto positively-charged nylon membranes using the BioDot instrument (Cartesian Technologies, Inc.). After uv-crosslinking, the membranes were rinsed in 2× SSC and allowed to air-dry. Prior to addition of labeled cDNA probes, membranes were washed in boiling 1% SDS, rinsed with 6× SSC, and incubated in 5 mL of 42° C. Microhyb solution (Research Genetics) for 2 hr. Ten minutes prior to addition of the probes, the Microhyb solution was replaced with an equal amount of fresh 42° C. Microhyb solution containing denatured human Cot-1 DNA (Gibco BRL) and poly(dA) primer (Research Genetics) (both at final concentrations of 1 ng/μl).
For each reverse transcription reaction, 2 μg of mRNA was incubated with oligo(dT) primer (200 ng/μl) at 70° C. for 10 minutes. Tubes were chilled and spun briefly. The following reagents (with the final concentrations in parentheses) were added: first strand buffer (1×), DTT (10 mM), dNTP mix (1 mM each of dATP, dGTP, dTTP), [α-^33P]dCTP (3.3 μCi/μl) and Superscript II Reverse Transcriptase (10 units/μL). The samples were kept at 37° C. for 1.5 hr. Unincorporated nucleotides were removed by spinning the reaction mixture through a G-50 column. […] Probe quality was assessed by electrophoresis on a 10% denaturing polyacrylamide minigel. Denatured probes were added directly to the Microhyb solution and hybridized overnight at 42° C. Membranes were washed twice under each of the following conditions: (1) 2× SSC/0.1% SDS at room temperature, 5 min; (2) 0.2× SSC/0.1% SDS at room temperature, 5 min; (3) 0.2× SSC/0.1% SDS at 42° C., 15 min, (4) 0.1× SSC/0.1% SDS at 68° C., 15 min. Membranes were then rinsed briefly in 2× SSC at room temperature, covered with Saran wrap, and exposed to storage phoshpor screens. After three days, screens were scanned using a Storm phosphorimager (Molecular Dynamics). Images were analyzed using ImageQuant software (Molecular Dynamics).
We employed a rapid dot blot assay as a secondary screen for gene expression changes. We tested each of the unique clones against each of the three treatments. […] For these clones, the dot blot assay functioned not as a confirmation assay but as an initial screen for differential expression. Dot blots were prepared by robotically arraying subclone-derived PCR products in quadruplicate onto positively charged nylon membranes. […] In general, each dot consisted of over 80 ng of PCR product, as estimated by inspection of the PCR reactions run on agarose gels. This high quantity of DNA ensured that saturation of spots, with consequent loss of quantitation, would not occur. Spots of genomic DNA were included on each filter to allow normalization between control and treated sample intensities.

[3] = 24 hr, 20 mM APAP, 16 mM CAF, 100 mM THI

CC(=O)Nc1ccc(O)cc1 [acetaminophen]
inhibition at 20000 µM ([1]; Homo sapiens, HepG2, 24 h; read-out: Inhibition of BrdU uptake (cell proliferation)): 67 to 80%
IC50 ([1]; Homo sapiens, HepG2; read-out: IC50, BrdU incorporation in HepG2 cells): ~5 mM
Number of 27 unconfirmed or non-matching clones showing an expression change ([2]; 24 hr): 7

CC(=N)S [thioacetamide]
IC50 ([1]; Homo sapiens, HepG2, read-out: IC50, BrdU incorporation in HepG2 cells): 57 mM
Fold change, down-regulation: EST (AA283846), clone 90-1 ([2]; 24 hr treatments): 7.7 fold
Fold change, down-regulation: EST (AA805555), clone 83 ([2]; 24 hr treatments): 11.1 fold
Fold change, down-regulation: EST (AI310515), clone 32-2 ([2]; 24 hr treatments): 9.1 fold
Fold change, down-regulation: Lactate dehydrogenase A, clone A24-1 ([2]; 24 hr treatments): 5.0 fold
Fold change, down-regulation: Pyruvate dehydrogenase E1-beta subunit, clone A123 ([2]; 24 hr treatments): 12.5 fold
Fold change, down-regulation: Transforming growth factor-beta type III receptor, clone A155-6 ([2]; 24 hr treatments): 3.0 fold
Fold change, up-regulation: Activating transcription factor 4, clone A108D ([2]; 24 hr treatments): 3.8 fold
Fold change, up-regulation: EST (N22016), clone AI24-6 ([2]; 24 hr treatments): up
Fold change, up-regulation: EST, similar to ubiquitin hydrolase, clone A130-3 ([2]; 24 hr treatments): up
Dot blot expression ratio (treated/control): 90-kDa heat-shock protein, clone 23 [2, 3]: 0.96 n
Dot blot expression ratio (treated/control): ABC transporter, clone 31-4 [2, 3]: 0.28
Dot blot expression ratio (treated/control): AH antigen, clone A136-1 [2, 3]: 0.00
Dot blot expression ratio (treated/control): Activating transcription factor 4, clone A108D [2, 3]: 3.77
Dot blot expression ratio (treated/control): Apolipoprotein B-100, clone A124-1 [2, 3]: 0.76
Dot blot expression ratio (treated/control): Atopy related autoantigen CALC, clone A182-1 [2, 3]: 0.66
Dot blot expression ratio (treated/control): Centromere protein E (CENPE), clone A187-5 [2, 3]: 0.65
Dot blot expression ratio (treated/control): Centromere protein F (400 kD) (CENPF kinetochore protein), clone A136 [2, 3]: 1.98
Dot blot expression ratio (treated/control): Cu/Zn superoxide dismutase (SOD), clone A94-4 [2, 3]: 0.91
Dot blot expression ratio (treated/control): DB1, clone A176-3 [2, 3]: 0.36
Dot blot expression ratio (treated/control): DNA topoisomerase II binding protein, clone A172 [2, 3]: 0.49
Dot blot expression ratio (treated/control): E1B 19K/Bcl-2-binding protein Nip3, clone 81-6 [2, 3]: 0.23 c
Dot blot expression ratio (treated/control): EST (AA283846), clone 90-1 [2, 3]: 0.13 c
Dot blot expression ratio (treated/control): EST (AA430551), clone A160-5 [2, 3]: 0.17
Dot blot expression ratio (treated/control): EST (AA581887), clone 102-2 [2, 3]: 1.80 n
Dot blot expression ratio (treated/control): EST (AA581887), clone A102-1 [2, 3]: 1.78 n
Dot blot expression ratio (treated/control): EST (AA805555), clone 83 [2, 3]: 0.09 c
Dot blot expression ratio (treated/control): EST (AC007400), clone A95-1 [2, 3]: 1.07
Dot blot expression ratio (treated/control): EST (AI049999), clone A104-5 [2, 3]: 0.89
Dot blot expression ratio (treated/control): EST (AI310515), clone 32-2 [2, 3]: 0.11 c
Dot blot expression ratio (treated/control): EST (N22016), clone A124-6 [2, 3]: up
Dot blot expression ratio (treated/control): EST (N26592), clone 101 [2, 3]: 0.26 c
Dot blot expression ratio (treated/control): EST (N39662), clone A99-1 [2, 3]: 0.50
Dot blot expression ratio (treated/control): EST (W44772), clone 87 [2, 3]: 1.11 n
Dot blot expression ratio (treated/control): EST, bithoraxoid-like protein, clone A183-1 [2, 3]: 0.42
Dot blot expression ratio (treated/control): EST, similar to Long-chain acyl-coenzyme A synthetase, clone A105-7 [2, 3]: 0.90
Dot blot expression ratio (treated/control): EST, similar to Ubiquinol cytochrome C reductase core protein 2, clone 93 [2, 3]: 0.38 c
Dot blot expression ratio (treated/control): EST, similar to arachidonate 15-lipoxygenase, clone 84 [2, 3]: 0.75 n
Dot blot expression ratio (treated/control): EST, similar to ubiquitin hydrolase, clone A130-3 [2, 3]: up
Dot blot expression ratio (treated/control): Esterase D/formylglutathione hydrolase, clone 24 [2, 3]: 0.31 c
Dot blot expression ratio (treated/control): G1 to S phasetransition 1 (GSPT1), clone 103-2 [2, 3]: 1.57 n
Dot blot expression ratio (treated/control): Glucose transporter pseudogene, clone 23-1 [2, 3]: 0.34
Dot blot expression ratio (treated/control): High mobility group 2 protein (HMG-2), clone A111-8 [2, 3]: 1.12
Dot blot expression ratio (treated/control): Human Alu-Sc subfamily consensus sequence, clone A96-4 [2, 3]: 0.84
Dot blot expression ratio (treated/control): Human transposon-like element mRNA, clone A135-3 [2, 3]: 0.59
Dot blot expression ratio (treated/control): Interleukin 6 signal transducer (gp130, oncostatin M receptor), clone 65-1 [2, 3]: 0.96 n
Dot blot expression ratio (treated/control): Ku autoimmune antigen, clone 27-2 [2, 3]: 0.47 c
Dot blot expression ratio (treated/control): Lactate dehydrogenase A, clone A24-1 [2, 3]: 0.20 c
Dot blot expression ratio (treated/control): Lipoprotein-associated coagulation inhibitor, clone A94-3 [2, 3]: 0.27 c
Dot blot expression ratio (treated/control): Liver microsomal UDP-glucuronosyltransferase (UDPGT), clone A128-7 [2, 3]: 0.70
Dot blot expression ratio (treated/control): Lsm5 protein, clone A115-5 [2, 3]: 0.39
Dot blot expression ratio (treated/control): MEGF9, clone 74 [2, 3]: 0.96 n
Dot blot expression ratio (treated/control): Myristoyl CoA:protein N-myristoyltransferase, clone 82 [2, 3]: 0.41
Dot blot expression ratio (treated/control): NADH dehydrogenase subunit 2, clone A131-1 [2, 3]: 1.45
Dot blot expression ratio (treated/control): Nucleosome assembly protein 1-1ike 1 (NAP1L1), clone 20-2 [2, 3]: 0.92 n
Dot blot expression ratio (treated/control): PPP1R5 gene, clone 30-5 [2, 3]: 0.17 c
Dot blot expression ratio (treated/control): T-complex polypeptide 1, clone 21-2 [2, 3]: 1.03
Dot blot expression ratio (treated/control): Transforming growth factor-beta type III receptor, clone A155-6 [2, 3]: 0.33
Dot blot expression ratio (treated/control): cAMP-responsive enhancer binding protein, alt. spliced (CREB327), clone 98 [2, 3]: 0.70 n
Dot blot expression ratio (treated/control): procollagen-lysine 2-oxoglutarate 5-dioxygenase 2, clone A185 [2, 3]: 0.36
Dot blot expression ratio (treated/control): pyruvate dehydrogenase El-beta subunit, clone A123 [2, 3]: 0.08
Number of 27 unconfirmed or non-matching clones showing an expression change ([2]; 24 hr): 9
